This note sets out measurements from patent publication US9896442B2, “Antifungal treatment” (Wisconsin Alumni Research Foundation, priority 2010, dated 2018).

Bounds are passed on as bounds.

The subject of one assay is Candida albicans biofilm. The assay can be described thus: In vitro biofilm drug synergy (checkerboard, XTT). It is filed as cell-based. Conditions: alone and in combination. On the procedure:
Candida biofilms were formed in 96-well flat-bottom polystyrene plates (Fischer) as described previously ([…], Crawford K, Andes D R. Optimizing a Candida Biofilm Microtiter Plate Model for Measurement of Antifungal Susceptibility by XTT Assay. J. Clin. Microbiol. 2011 Jan., 2). Cells from an overnight culture grown in YPD shaking at 37° C. were enumerated by hemocytometer and suspended in RPMI-MOPS (Fisher) at a concentration of 10^6 cells/ml. A 100 μl of inoculum was added to each well of the plate. After 6 h incubation at 37° C., biofilms were gently washed twice with phosphate-buffered saline (PBS) to remove unattached cells. […] The ranges of concentrations of the fluconazole used included the standard doses given to humans. After overnight incubation at 37° C., biofilms were washed twice with PBS. Measurement of biofilm cell metabolic activity using the XTT reduction assay was performed as previously described ([…], Crawford K, Andes D R. Optimizing a Candida Biofilm Microtiter Plate Model for Measurement of Antifungal Susceptibility by XTT Assay. J. Clin. Microbiol. 2011 January, […], and Andes D. Synergistic Effect of Calcineurin Inhibitors and Fluconazole against Candida albicans Biofilms. Antimicrob Agents Chemother. 2008 March; 52(3): 1127-1132). Briefly, 90 μl of XTT at 1 mg/ml (Sigma) and 10 μl phenazine methosulfate at 320 μg/ml (Sigma) were added to each well, and the plate was incubated at 37° C. for 2 h. Viable cell number was assessed using the Absorbance at 492nm measured using an automated plate reader. Assays were performed in duplicate. The drug concentration resulting in a 25% reduction in optical density compared to the no-drug control wells was determined (EC25).

For assay [1], the system named is Candida albicans biofilms. The assay can be described thus: Candida biofilm XTT reduction assay. Particulars: 24 hours, FIG. 6. It is filed as cell-based. On the procedure: Compound activity against C. albicans biofilm was assessed using a 96-well plate format as previously described by Nett et al. (15). Briefly, the C. albicans inoculum was prepared by diluting an overnight culture grown at 37° C. in RPMI-MOPS to 1×10^6 in RPMI-MOPS based on hemocytometer counts. An aliquot of 100 μl of the inoculum was added to each well of a 96-well flat-bottom polystyrene plate. After a 6-h incubation at 37° C., the wells were washed with phosphate-buffered saline (PBS) three times to remove any non-adherent cells. Fresh medium and fluconazole (Sigma), compound 13, and compound 33 were added and the plates were incubated at 37° C. for 24 hours. The XTT reduction assay was used to quantify the viability of biofilm cell as previously described (11). Briefly, 90 μl of (2,3)-bis-(2-Methoxy-4-Nitro-5-Sulphenyl)-(2H)-Tetrazolium-5-Carboxanilide (XTT; 1 mg/ml) (Sigma) and 10 μl phenazine methosulfate (320 μg/ml) (Sigma) were added to each well, and the plate was incubated for 2 h at 37° C. Cell viability was determined by measuring the absorbance at 490 nm using an automated plate reader. The biofilm growth assay was performed in duplicate.

`OC(Cn1cncn1)(Cn1cncn1)c1ccc(F)cc1F` [fluconazole, reference compound]: the growth reduction in the assay with Candida albicans biofilm (FIG. 9A, compound 13 experiment: fluconazole at 62.5 ug/ml, 13 at 0.8 ug/ml) is listed as 15%; in the assay on Candida albicans biofilm (FIG. 9B, compound 33 experiment: fluconazole at 62.5 ug/ml, 33 at 1.6 ug/ml), “approximately 6%”. Moreover, the “Concentration inhibiting Candida biofilm growth” value in assay [1] was > 1000 µg/mL.
